Literature values, collected in patent publication US20100055178A1, “ENTERIC-COATED CREATINE COMPOSITIONS AND METHODS OF USE THEREOF” (priority 2008, published 2010).

Experiments:
[1] = acidic solutions, pH 3-6
[2] = 5 grams, 4-6 times a day, for two or more days, oral

CN(CC(=O)O)C(=N)N [creatine]
rate of conversion of creatine to creatinine [1]: almost instantaneous | total creatine concentration [2]: significant increase
